ChEMBL document CHEMBL1201862, “PubChem BioAssay data set” (2004)
The source made the active and inactive calls.

Tests used:
[1] = target: T1, Nuclear receptor subfamily 0 group B member 1 (Homo sapiens, UniProt P51843); assay type: functional, cell-based;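 note: HEK293T cells transfected with SF-1 and DAX-1 plus StAR promoter luciferase reporter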
T1 sequence (P51843 whole entry): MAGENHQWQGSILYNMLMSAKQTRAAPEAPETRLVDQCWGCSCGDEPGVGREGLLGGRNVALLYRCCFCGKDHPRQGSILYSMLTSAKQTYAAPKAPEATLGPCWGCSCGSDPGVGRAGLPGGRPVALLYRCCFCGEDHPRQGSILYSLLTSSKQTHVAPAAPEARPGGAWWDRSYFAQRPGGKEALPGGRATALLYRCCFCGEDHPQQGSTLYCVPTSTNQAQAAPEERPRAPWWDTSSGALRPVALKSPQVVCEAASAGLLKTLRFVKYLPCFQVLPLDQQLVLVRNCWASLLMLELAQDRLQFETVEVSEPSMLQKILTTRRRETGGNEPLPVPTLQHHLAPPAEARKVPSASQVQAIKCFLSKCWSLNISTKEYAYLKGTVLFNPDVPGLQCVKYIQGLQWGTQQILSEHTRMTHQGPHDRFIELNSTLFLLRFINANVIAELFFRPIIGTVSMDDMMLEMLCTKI

cells = assay type: functional, cell-based
[2] = Luminescence Cell-Based Dose Retest to Confirm Inhibitors of Cancer Stem Cells. [Related pubchem assays (depositor defined):AID2717, AID2721]; assay type: functional; details: Homo sapiens
[3] = non-specific 3'UTR reporter inhibition in Clone20-Shn3RL – cell-based, Renilla luciferase, cherry-picked, counter-screen for Shn3 inhibitor project, dose response (AID 624133); assay type: functional
[4] = reduction of Shn3 3'UTR-driven luciferase in osteoblasts – cell-based, Clone20 osteoblasts, firefly luciferase, cherry-picked, dose response (AID 624132); assay type: functional;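 note: firefly luciferase luminescence from reporter carrying the Shn3 3'UTR in osteoblasts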
[5] = loss of viability in HepG2 cells – cell-based, CellTiter-Glo, cherry-picked, cytotoxicity control for Shn3 inhibitor project, dose response (AID 624134); assay type: functional
[6] = Fluorescence-based cell-based high throughput dose response assay for inhibitors of the interaction of nucleotide-binding oligomerization domain containing 2 (NOD2) and the receptor-interacting serine-threonine kinase 2 (RIPK2).; assay type: functional; details: Homo sapiens
[7] = target: T2, Serine/threonine-protein phosphatase (Candida dubliniensis (strain CD36 / CBS 7987 / NCPF 3949 / NRRLY-17841) (Yeast), UniProt B9W6M3); assay: blockers of CaCl2-induced CDRE-lacZ signaling – S. cerevisiae, luminescence, secondary, dose response (AID 2388); assay type: functional, cell-based;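 note: yeast reporter cells carrying a calcineurin-responsive lacZ construct stimulated with calcium chloride; luminescent beta-galactosidase reporter signal in whole cells rather than isolated phosphatase activity; potency for inhibition where a drop in reporter signal means calcineurin blockade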
T2 sequence (B9W6M3 whole entry): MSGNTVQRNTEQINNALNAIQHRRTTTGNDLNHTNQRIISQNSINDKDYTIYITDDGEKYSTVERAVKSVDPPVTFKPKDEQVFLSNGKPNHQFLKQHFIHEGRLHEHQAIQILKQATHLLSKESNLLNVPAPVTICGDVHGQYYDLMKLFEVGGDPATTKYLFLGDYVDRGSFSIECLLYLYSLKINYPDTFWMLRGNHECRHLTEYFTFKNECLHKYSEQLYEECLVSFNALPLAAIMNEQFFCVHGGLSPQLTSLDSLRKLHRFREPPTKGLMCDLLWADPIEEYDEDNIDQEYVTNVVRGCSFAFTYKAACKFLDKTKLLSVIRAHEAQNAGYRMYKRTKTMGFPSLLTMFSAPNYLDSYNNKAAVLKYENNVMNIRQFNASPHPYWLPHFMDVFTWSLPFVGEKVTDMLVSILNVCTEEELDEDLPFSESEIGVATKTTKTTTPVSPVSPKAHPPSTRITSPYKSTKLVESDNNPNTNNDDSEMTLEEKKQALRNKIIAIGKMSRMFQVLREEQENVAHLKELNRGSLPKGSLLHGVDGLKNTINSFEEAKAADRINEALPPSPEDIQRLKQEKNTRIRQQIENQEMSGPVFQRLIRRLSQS

Streptococcus = assay: GAS UMAA2166 growth inhibition – luminescence, BacTiterGlo, counter-screen for streptokinase expression inhibitor project, dose response (AID 1915); assay type: functional, organism-based;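 note: potency for reduction of bacterial viability or growth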
[8] = Luminescence Cell-Based Dose Response HTS to Identify Inhibitors of 5'UTR Stem-Loop Driven Prion Protein mRNA Translation in H4 Neuroglioblastoma Cells. [Related pubchem assays: 1827 (Project Summary), 1813 (Primary HTS)]; assay type: functional
[9] = alpha-synuclein stem-loop luciferase translation blockers – H4 neuroglioma cells, luminescence, confirmation (AID 1988); assay type: functional, cell-based
[10] = target: ATP-dependent molecular chaperone HSP82 (Candida albicans (strain WO-1) (Yeast), UniProt C4YTQ8); assay: steroid-induced GRE reporter decrease in yeast – S. cerevisiae, luminescence, Hsp90 inhibitor project, dose response (AID 2400); assay type: functional, cell-based;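 note: beta-galactosidase luminescence from glucocorticoid response element reporter as proxy for Hsp90 function; inhibitor potency where signal loss means Hsp90 inhibition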
Sequence of ATP-dependent molecular chaperone HSP82 (C4YTQ8 whole entry): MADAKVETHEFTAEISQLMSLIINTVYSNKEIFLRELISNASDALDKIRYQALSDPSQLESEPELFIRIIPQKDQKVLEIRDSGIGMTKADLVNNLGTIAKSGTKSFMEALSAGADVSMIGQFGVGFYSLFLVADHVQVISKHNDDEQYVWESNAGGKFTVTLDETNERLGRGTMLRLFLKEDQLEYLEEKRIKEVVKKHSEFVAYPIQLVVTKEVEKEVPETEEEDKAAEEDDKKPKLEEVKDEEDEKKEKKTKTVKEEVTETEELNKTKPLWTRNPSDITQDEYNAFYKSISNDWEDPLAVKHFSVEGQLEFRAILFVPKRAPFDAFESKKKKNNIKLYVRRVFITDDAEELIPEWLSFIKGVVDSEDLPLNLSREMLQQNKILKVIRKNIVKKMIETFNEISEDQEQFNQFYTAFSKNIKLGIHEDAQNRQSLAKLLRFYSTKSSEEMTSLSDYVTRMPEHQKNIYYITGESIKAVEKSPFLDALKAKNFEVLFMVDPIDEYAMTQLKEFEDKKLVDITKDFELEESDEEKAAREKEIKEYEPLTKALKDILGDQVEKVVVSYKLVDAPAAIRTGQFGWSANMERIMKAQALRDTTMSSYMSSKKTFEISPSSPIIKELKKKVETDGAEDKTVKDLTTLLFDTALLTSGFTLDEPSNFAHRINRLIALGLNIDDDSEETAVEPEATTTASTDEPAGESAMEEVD

[11] = test system: Streptococcus sp. 'group A'; assay: Streptococcus pyogenes SK(-)GAS viability under kanamycin – luminescence, BacTiterGlo, confirmation, counter-screen for streptokinase expression inhibitor project, dose response (AID 1900); assay type: functional, organism-based
[12] = luciferase reporter signal suppression in cells – H4 neuroglioma cells, luminescence, dose response (AID 1990); assay type: functional, cell-based
[13] = NIH-3T3 fibroblast cytotoxicity, dose response, cytotoxicity control, cell-based, fluorescence, Alamar Blue, secondary assay (AID 2327); assay type: functional;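 note: NIH-3T3 mouse fibroblasts cultured with fluconazole at 8 µg/mL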
[14] = fluconazole-exposed Candida albicans growth modulators – fluorescence, retest, confirmation (AID 2467); assay type: functional, cell-based
[15] = OVCAR8 cell viability loss – plate reader, dry powder samples, PAX8 project, dose response (AID 743197); assay type: functional, cell-based; details: OVCAR-8
Paired box protein Pax-8 = Paired box protein Pax-8 (Homo sapiens, UniProt Q06710); assay: PAX8 transcriptional activity inhibition in RMG-I – RMG-I cells, luciferase, cherry-pick, dose response (AID 687027); assay type: functional, cell-based;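 note: luciferase reporter driven by Pax8 target thyroperoxidase promoter measured by SteadyGlo luminescence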
Sequence of Paired box protein Pax-8 (Q06710 whole entry): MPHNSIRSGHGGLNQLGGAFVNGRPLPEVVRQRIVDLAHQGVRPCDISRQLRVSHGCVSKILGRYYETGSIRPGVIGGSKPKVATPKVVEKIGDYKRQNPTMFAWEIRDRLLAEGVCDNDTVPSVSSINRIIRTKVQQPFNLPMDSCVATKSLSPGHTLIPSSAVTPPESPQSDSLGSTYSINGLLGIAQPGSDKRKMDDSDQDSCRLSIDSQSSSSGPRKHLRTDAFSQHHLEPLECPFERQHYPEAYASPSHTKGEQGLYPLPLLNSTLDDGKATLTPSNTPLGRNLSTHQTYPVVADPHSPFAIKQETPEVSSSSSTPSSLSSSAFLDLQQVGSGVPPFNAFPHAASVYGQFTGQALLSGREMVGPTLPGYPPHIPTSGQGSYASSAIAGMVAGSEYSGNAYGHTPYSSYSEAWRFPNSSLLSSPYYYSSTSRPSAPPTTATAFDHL

[16] = OVCAR-3 cell viability loss – plate reader, dry powder samples, PAX8 inhibitor project, dose response (AID 743044); assay type: functional, cell-based

With `CN(CCC#N)c1ccc(/C=C(\C#N)c2ccccn2)cc1` the IC50 [1] was > 0.834 µM (active) and the IC50 (cells) was > 67.5 µM (inactive).

In the case of `O=[N+]([O-])/C=C/c1cn(Cc2ccc(Cl)cc2)c2ccccc12`, the AC50 [2] is reported as 1.88 µM (active), the AC50 [3] is reported as 21.2 µM (active) and the AC50 [4] is reported as 8.32 µM (active). For the same compound, the AC50 [5] was 5.81 µM (active) and the IC50 [6] was 6.98 µM (active).

For `Cc1cccc(C(=O)CC(=O)c2cc(Cl)ccc2O)c1`, the EC50 [7] was > 180 µM (inactive), the EC50 (Streptococcus) was 1.61 µM (active) and the EC50 [8] was 9.23 µM (active). For the same compound, the EC50 [9] was 5.25 µM (active), the EC50 [10] was 3.18 µM (active) and the EC50 [11] was 1.01 µM (active). For the same compound, the EC50 [12] was 8.03 µM (active), the EC50 [13] was 34.3 µM (active) and the EC50 [14] was 1.09 µM (active).

For `CCC1(O)CC2CN(CCc3c([nH]c4ccccc34)C(C(=O)OC)(c3cc4c(cc3OC)N(C=O)C3C(O)(C(=O)OC)C(OC(C)=O)C5(CC)C=CCN6CCC43C65)C2)C1` (stereo not drawn), the IC50 [1] was 0.386 µM (active) and the IC50 (cells) was > 67.5 µM (inactive).

For `N#Cc1cccc(-c2ccc3c(c2)[C@@H]2[C@@H](CCN2C(=O)C2CCCCC2)[C@@H](CO)N3)c1`, the AC50 [15] was 61.9 µM (active) and the AC50 (Paired box protein Pax-8) was 17.8 µM (active).

In the case of `C[C@@H]1CCCCO[C@H](CN(C)Cc2ccc(Cl)c(Cl)c2)[C@H](C)CN([C@@H](C)CO)C(=O)c2cc(NC(=O)Nc3ccc(C(F)(F)F)cc3)ccc2O1`, the AC50 [15] is reported as 51.1 µM (active), the AC50 [16] is reported as 20.1 µM (active) and the AC50 (Paired box protein Pax-8) is reported as 5.49 µM (active).
